Test results from patent US9290544B2, “Methods for making and using molecular switches involving circular permutation” (priority 2004, dated 2016).
Where “and” joins values, the source holds several entries; their conditions need not be identical. Equal entries are not always repeated.

Experiments:
[1] = Affinity of switches for maltose (method not given); type: binding
Description: Exemplary switches were created by the method having different affinities for maltose.

[2] = Steady state kinetics of nitrocefin hydrolysis, purified RG13 proteins, 25° C.; type: biochemical
Description: (§1) All kinetic assays were performed at 25° C. in the presence of 100 mM sodium phosphate buffer, pH 7.0. Ten μl of enzyme stock was added to 1.59 ml buffer (containing the saccharide, if desired). After incubation for 30 seconds, 0.4 ml of 5× substrate was added and the absorbance at the appropriate wavelength was recorded using the Cary50 UV-VIS spectrophotometer. The wavelength monitored was 486 nm, 240 nm, and 232 nm for nitrocefin, carbenicillin, and ampicillin respectively. From the initial rate of reaction the kinetic constants were determined using Eadie-Hofstee plots. […] The rate data was consistent with a small hysteretic effect (Brennan et al. 1994) and not substrate inhibition as preincubation of the enzyme with the substrate for one minute prevented the lag from occurring upon addition of more substrate. Therefore, the steady state parameters for nitrocefin hydrolysis in the absence of maltose were determined by measuring the rate at 1-2 minutes (well after the lag) and correcting the substrate concentration by subtracting the amount of substrate hydrolyzed. In all cases the extent of reaction at the point the rate was measured was less than 25%. In the presence of maltose, no lag was observed.

[3] = Nitrocefin hydrolysis in soluble fraction of cell lysates with and without 5 mM maltose (screen and confirmation of positives); type: biochemical; conditions: 50 μM nitrocefin
Description: Next, 50 μl of PopCulture (Novagen) and 2.5 unit of benzonase nuclease was added to each well and incubated for 15 minutes at room temperature to lyse the cells. The cells debris and any unlysed cells were pelleted by centrifugation and supernatant was recovered. In 96-well format, 60 μl of lysate was assayed for hydrolysis of nitrocefin (50 μM) by monitoring the increase in absorbance at 490 nm in 100 mM sodium phosphate buffer, pH 7.0, both with and without 5 mM maltose. Any lysate in which there was a difference in rate of more than 2-fold (between with and without maltose) was selected for retesting and further investigation.
Library members identified as having more than 200% switching activity in the 96-well plate screen were grown 24-48 hours in 100 ml LB media in 500 ml shaker flasks at 22° C. without IPTG. The cells were pelleted and resuspended in 8 ml assay buffer (100 mM sodium phosphate buffer, pH 7.0) and lysed by French press. The soluble fraction of this lysate was assayed for hydrolysis of nitrocefin (50 μM) at 22° C. as previously described (Guntas and Ostermeier 2004) both with and without 5 mM maltose. Initial rates were determined from absorbance at 486 nm monitored as a function of time. The enzyme was incubated at the assay temperature in the absence or presence of 5 mM maltose for four minutes prior to performing the assay. All assays contained 100 mM sodium phosphate buffer, pH 7.0. Library members for which there was a difference in the initial rate of more than about 2-fold were sequenced (Table 4). Switches RG-5-169 and RG-200-13 were also assayed in the presence of 5 mM sucrose or 5 mM glucose.

E. coli cells = test: MIC of ampicillin for E. coli cells expressing RG13 from pDIMC8 (Table 11); type: cell-based
Description: The signal recognition domain can be altered by rational design or directed evolution to bind to new effectors. With respect to testing mutations predicted by rational design or screening or selecting libraries created for a directed evolution approach, existing switches are used to efficiently test or select for binding to new ligands in vivo. For example, E. coli cells expressing the MBP-BLA switch RG13 from the lac promoter on pDIMC8 have a higher MIC for ampicillin (Amp) in the presence of maltose than in their absence (Table 11) because the BLA enzymatic activity of RG13 (hydrolysis of ampicillin) is higher in the presence of maltose. Thus, for example, mutations created in RG13 (either by rational design or by a stochastic or semi-stochastic method) such that mutant forms of RG13 bind another ligand X (and behave as a switch) can be screened or selected for in vivo. E. coli producing such a new switch will grow at 200 μg/ml Amp in the presence of X but not in the absence of X.

[4] = Hydrolysis of benzylpenicillin by RG-200-13 with and without 5 mM maltose; type: biochemical; conditions: pH 7.0, 22° C.
Description: (§2) A 6×His tag was added to the C-terminus of RG-200-13 (also termed “RG13” in Examples below) and the fusion was purified as previously described (Guntas and Ostermeier 2004). The protein was purified to approximately 60% purity. The kinetic constants and binding constants were determined from Eadie-Hofstee plots and Eadie plot equivalents, respectively, using a spectrophotometric assay for nitrocefin hydrolysis. Initial rates for nitrocefin hydrolysis were determined from absorbance at 486 nm monitored as a function of time. The enzyme was incubated at the assay temperature in the absence or presence of saccharide for four minutes prior to performing the assay. All assays contained 100 mM sodium phosphate buffer, pH 7.0. The dissociation constant for maltose was determined using change in velocity of nitrocefin hydrolysis as a signal.
(§3) Maltose binding had the largest effect on cephalothin (of the substrates tested), with the velocity of cephalothin hydrolysis being 32-fold higher in the presence of maltose than in its absence.

[5] = Carbenicillin hydrolysis by purified RG13, 25° C.; type: biochemical; conditions: 50 μM carbenicillin
Description: as §1

[6] = Hydrolysis of oxacillin by RG-200-13 with and without 5 mM maltose; type: biochemical; conditions: substrate oxacillin 1 mM; pH 7.0, 22° C.
Description: as §2, §3

[7] = effector maltose 5 mM (saturating)
[8] = effector maltose 5 mM (saturating), nitrocefin, 25° C.
[9] = effector β-cyclodextrin 5 mM, nitrocefin, 25° C.
[10] = no effector, nitrocefin, pH 7.0, 25° C.

RG13: MBP-BLA fusion switch MBP[1-316]-BLA[227-286]-GSGGG-BLA[24-226]-S-MBP[319-370]; SEQ ID NO: 61
Kd [1]: 1000 to 5000 nM | Increase in the reaction rate on addition of subsaturating maltose ([2]; 20 μM nitrocefin, 2.5 nM RG13, 2 ml, 20 μl of 1 M maltose added (FIG. 7B)): 10 fold | Km Ratio (with effector)/(without effector) ([2]; effector maltose 5 mM): 0.12 ± 0.03 | kcat Ratio (with effector)/(without effector) [2, 7]: 3 and 3.1 ± 0.6 | kcat/Km Ratio (with effector)/(without effector) [2, 7]: 25 and 25 ± 7 | Km [2, 8]: 68 ± 4 µM | kcat [2, 8]: 620 ± 60 s⁻¹ and 620 ± 30 s⁻¹ | Km Ratio (with effector)/(without effector) ([2]; effector β-cyclodextrin 5 mM): 1.6 ± 0.4 | kcat Ratio (with effector)/(without effector) ([2]; effector β-cyclodextrin 5 mM): 2.9 ± 0.6 | kcat/Km Ratio (with effector)/(without effector) ([2]; effector β-cyclodextrin 5 mM): 1.8 ± 0.6 | Km [2, 9]: 870 ± 90 µM | kcat [2, 9]: 590 ± 60 s⁻¹ | Decrease of Km with saturating amounts of maltose ([2]; nitrocefin, 25° C.): 8 fold | Km [2, 10]: 550 ± 120 µM | kcat [2, 10]: 200 ± 40 s⁻¹ | Effect of non-ligands on rate of nitrocefin hydrolysis ([2]; sucrose, lactose and galactose 5 mM, 20 μM nitrocefin (FIG. 7A)): no effect | Increase in the rate of nitrocefin hydrolysis upon addition of ligand ([2]; β-cyclodextrin 5 mM, 20 μM nitrocefin (FIG. 7A)): 2 fold | Effect of 5 mM sucrose or 5 mM glucose on velocity of nitrocefin hydrolysis ([3]; 22° C., lysate soluble fraction): Neither sugar affected the velocity of nitrocefin hydrolysis | Switching effect: percent change in velocity of nitrocefin hydrolysis in the presence of 5 mM maltose ([3]; 5 mM maltose, 100 mM sodium phosphate buffer, pH 7.0): +1650% | MIC ampicillin (E. coli cells; supplement to plate: 50 μM maltose): 400 µg/mL | MIC ampicillin (E. coli cells; supplement to plate: 5 mM maltose): 400 µg/mL | MIC ampicillin (E. coli cells; supplement to plate: none, LB plates, 37° C.): 100 µg/mL | Approximate fold increase in velocity of benzylpenicillin hydrolysis in the presence of 5 mM maltose ([4]; substrate benzylpenicillin 100 μM): ~17 fold | Approximate fold increase in velocity of benzylpenicillin hydrolysis in the presence of 5 mM maltose ([4]; substrate benzylpenicillin 500 μM): ~7 fold | Rate increase with maltose [5]: 12 fold | Approximate fold increase in velocity of oxacillin hydrolysis in the presence of 5 mM maltose [6]: ~5 fold
